Consider one compound from article PMC8201479, “Trisubstituted Pyrrolinones as Small-Molecule Inhibitors Disrupting the Protein–RNA Interaction of LIN28 and Let-7” (ACS Medicinal Chemistry Letters, 2021).

In experiment [1] the target is T1, cold shock domain of LIN28A (residues 16–126) (Homo sapiens, UniProt Q9H9Z2).
T1 construct: cold shock domain construct LIN28 A (residues 16– 126)
T1 sequence (Q9H9Z2 16-126): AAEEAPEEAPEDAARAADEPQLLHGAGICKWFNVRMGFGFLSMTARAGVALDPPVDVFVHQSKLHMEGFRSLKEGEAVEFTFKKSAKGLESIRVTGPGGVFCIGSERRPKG
Nature of the experiment: Thermal shift assay (nano-differential scanning fluorimetry). Format: binding. To be noted: 30 µM protein, compound 100 µM to 0.78 µM. Here is the method: was detected after incubation at room temperature using a TECAN Spark plate reader. Half maximal […]
inhibitory concentrations (IC50) were determined using GraphPad Prism 7.
Compound screening. High throughput screening was performed in low volume 384 well plates […]
(Corning 4514) with 30 µM compound, 40 nM LIN28A, and 2 nM preE-let-7f-1-FAM in FP assay […]
buffer. Compounds were transferred with an ECHO 520 liquid handler and protein and RNA were […]
added with a multidrop dispenser. Protein and RNA were added stepwise with a 30 min incubation […]
period in between. FP was detected after a final incubation of 15 min with an Envision plate reader […]
and fluorescence was measured with a Paradigm plate reader. A reaction without LIN28 served as a […]
negative control and one without compound was used as a positive control. The software Quattro […]
fluorescence was detected with a ChemiDoc M P (Bio-Rad) and 2 minutes of exposure time. […]
126) with and without compound was monitored using a NanoTemper Prometheus NT.48 nano - […]
differential scanning fluorimetry (nanoDSF) instrument at temperatures between 20 °C and 90 °C and a temperature slope of 1 °C per minute with an excitation power of 50–60 %. […] The ratio of intrinsic tryptophan fluorescence at 350 nm and 330 nm was measured and the first derivative was determined to detect the inflection points using the software of the device. […]
(In general: DSF heats the sample and reads unfolding from a dye or from intrinsic fluorescence.)

The target of a further experiment is T2, LIN28–let-7 interaction (Homo sapiens, UniProt Q9H9Z2).
T2 construct: Purified LIN28A (residues 16–187) was incubated at a concentration of 200 nM; His-tag (cleaved yes); made in house; host or cells: Escherichia coli BL21(DE3)
T2 sequence (Q9H9Z2 16-187): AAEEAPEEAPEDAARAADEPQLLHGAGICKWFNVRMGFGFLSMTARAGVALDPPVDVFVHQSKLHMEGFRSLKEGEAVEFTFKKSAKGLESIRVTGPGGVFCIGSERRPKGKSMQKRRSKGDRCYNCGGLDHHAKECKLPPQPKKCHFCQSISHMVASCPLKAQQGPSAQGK
Briefly: Fluorescence polarization (FP) assay, LIN28A (residues 16–187) and FAM-labeled preE-let-7f-1. Format: binding. To be noted: for FP, Average (mP): raw data Table S3, four replicates. For orientation: Polarisation of emitted light reports the rotation of a fluorescent probe.

As usually defined, the IC50 is the concentration at which inhibition is half-maximal. `O=C(C1=C(O)C(=O)N(c2ccc(O)c(C(=O)O)c2)C1c1ccc(-c2nccs2)cc1)c1ccc(Br)cc1` (stereo not shown) [C902/PH-31]: the “thermal stability of the CSD of LIN28A” value in experiment [1] is reported as “concentration-dependent enhancement”. On LIN28–let-7 interaction (Table 1, quadruplicate, starting from a maximum concentration of 60 μM, eight concentrations, read-out: IC50, LIN28–let-7 inhibitory activity), the half-inhibitory concentration (IC50) came to 5 µM. The “FP, Average (mP)” value on LIN28–let-7 interaction (0.041 μM compound) was 109.25 mP; on LIN28–let-7 interaction (0.123 μM compound), 110.00 mP; on LIN28–let-7 interaction (0.368 μM compound) it was 113.50 mP; at LIN28–let-7 interaction (1.103 μM compound) it was 105.75 mP; at LIN28–let-7 interaction (3.125 μM compound), 75.05 mP; at LIN28–let-7 interaction (9.375 μM compound), 64.03 mP. The entries for the “FP, Average (mP)” value at LIN28–let-7 interaction (29.688 μM compound) and on LIN28–let-7 interaction (59.375 μM compound) were 43.05 mP and 38.75 mP, respectively.
